Laboratory results from patent US5977110A, “Substituted cyclohexylamines as central nervous systems agents” (Warner-Lambert Company, priority 1998, dated 1999).
Counter-ions that a name gives are not always drawn. Like-named read-outs stand apart in the source and are kept apart here.

Tests used:
[1] = target: T1, serotonin 5HT1A receptor (Rat Hippocampus Membranes) (Rattus norvegicus, UniProt P19327); experiment: Inhibition of [^3 H]8-OH-DPAT Binding to Rat Hippocampus Membranes; conditions: [^3 H]-8-OH-DPAT ligand
T1 construct: Hippocampus; from tissue; host or cells: rat hippocampus membranes
T1 sequence (P19327 1-422): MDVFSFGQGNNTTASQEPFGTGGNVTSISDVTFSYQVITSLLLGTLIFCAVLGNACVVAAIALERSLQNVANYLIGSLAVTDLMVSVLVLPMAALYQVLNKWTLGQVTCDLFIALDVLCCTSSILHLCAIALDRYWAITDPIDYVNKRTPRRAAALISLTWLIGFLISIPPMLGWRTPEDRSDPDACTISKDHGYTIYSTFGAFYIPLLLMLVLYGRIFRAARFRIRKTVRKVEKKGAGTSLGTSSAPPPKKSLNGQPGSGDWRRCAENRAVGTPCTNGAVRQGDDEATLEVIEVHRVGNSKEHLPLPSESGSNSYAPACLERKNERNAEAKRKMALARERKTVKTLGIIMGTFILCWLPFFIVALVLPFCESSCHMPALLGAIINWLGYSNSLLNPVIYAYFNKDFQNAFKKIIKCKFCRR
Protocol: (§1) The compounds of Formula I are valuable dopaminergic and serotonergic agents. […] Thus, the compounds of Formula I were tested for their ability to inhibit spontaneous locomotor activity in mice, a test predictive of antipsychotic activity, according to the assay described by McLean J. R., et al., Pharmacology, Biochemistry and Behavior, 1978;8:97-99; for their ability to bind to the dopamine D2 receptor using [^3 H]-2-(N-propyl-N-2-thienylethylamino)-5-hydroxytetralin ([^3 H)N-0437) as the ligand according to the method disclosed in Van der Weide J., et al., Eur. J. Pharmacol., 1987;134:211-219; and for their ability to bind to the serotonin 5HT1A receptor using [^3 H]-8-hydroxy-dipropylaminotetralin ([^3 H]-8-OH-DPAT) as the ligand according to the method disclosed in Peroutka S. J., et al., Brain Res., 1985;344:167-171. The above test methods are incorporated herein by reference. The data in the table show the dopaminergic and serotonergic activity of representative compounds of Formula I.

[2] = test system: spontaneous locomotor activity in mice; experiment: Inhibition of spontaneous locomotor activity in mice, a test predictive of antipsychotic activity; assay type: in vivo; conditions: Mus musculus, read-out: Inhibition of Locomotor Activity in Mice (ED50, mg/kg, IP)
Protocol: as §1

[3] = target: dopamine D2 receptor (h-D2 Receptors) (Homo sapiens, UniProt P14416); experiment: Inhibition of [^3 H]N-0437 Binding to h-D2 Receptors; conditions: [^3 H]N-0437 ligand
dopamine D2 receptor (h-D2 Receptors), sequence (P14416 whole entry): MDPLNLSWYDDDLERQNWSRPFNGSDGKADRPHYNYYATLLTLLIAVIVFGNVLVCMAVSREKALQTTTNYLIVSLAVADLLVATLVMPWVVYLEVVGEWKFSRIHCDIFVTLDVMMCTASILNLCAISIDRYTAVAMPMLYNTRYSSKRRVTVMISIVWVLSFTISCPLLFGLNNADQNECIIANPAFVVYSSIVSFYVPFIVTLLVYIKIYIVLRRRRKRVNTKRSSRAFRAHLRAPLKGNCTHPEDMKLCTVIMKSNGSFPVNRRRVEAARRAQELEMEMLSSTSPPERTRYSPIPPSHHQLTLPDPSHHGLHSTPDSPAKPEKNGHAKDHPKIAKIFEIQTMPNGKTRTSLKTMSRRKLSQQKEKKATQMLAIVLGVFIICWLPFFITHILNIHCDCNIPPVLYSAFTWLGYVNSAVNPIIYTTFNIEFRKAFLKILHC
Protocol: Thus, the compounds of Formula I were tested for their ability to inhibit spontaneous locomotor activity in mice, a test predictive of antipsychotic activity, according to the assay described by McLean J. R., et al., Pharmacology, Biochemistry and Behavior, 1978;8:97-99; for their ability to bind to the dopamine D2 receptor using [^3 H]-2-(N-propyl-N-2-thienylethylamino)-5-hydroxytetralin ([^3 H)N-0437) as the ligand according to the method disclosed in Van der Weide J., et al., Eur. J. Pharmacol., 1987;134:211-219; and for their ability to bind to the serotonin 5HT1A receptor using [^3 H]-8-hydroxy-dipropylaminotetralin ([^3 H]-8-OH-DPAT) as the ligand according to the method disclosed in Peroutka S. J., et al., Brain Res., 1985;344:167-171. The above test methods are incorporated herein by reference.

Ki [1] [nM]	Ki [3] [nM]	SMILES	ED50 ([2]; mice, IP, ED50) [mg/kg]	ED50 ([2]; ip) [mg/kg]
		c1ccc(N2CCN(CC[C@H]3CC[C@H](Nc4ncccn4)CC3)CC2)nc1 [Example 1a, trans-{4-[2-(4-Pyridin-2-yl-piperazin-1-yl)-ethyl]-cyclohexyl}-pyrimidin-2-yl-amine]	0.24	
1.9	28	c1ccc(N2CCN(CC[C@H]3CC[C@@H](Nc4ncccn4)CC3)CC2)cc1 [Example 9, cis-{4-[2-(4-Phenyl-piperazin-1-yl)-ethyl]-cyclohexyl}-pyrimidin-2-yl-aminehydrochloride]		
		FC(F)(F)c1cccc(N2CCN(CC[C@H]3CC[C@H](Nc4ncccn4)CC3)CC2)c1 [Example 12, trans-Pyrimidin-2-yl-(4-{2-[4-(3-trifluoromethyl-phenyl)-piperazin-1-yl]-ethyl}-cyclohexyl)-amine]	4.4	
		COc1ccccc1N1CCN(CC[C@H]2CC[C@H](Nc3ncccn3)CC2)CC1 [Example 13, trans-(4-{2-[4-(2-Methoxy-phenyl)-piperazin-1-yl]ethyl}-cyclohexyl)-pyrimidin-2-yl-amine]	0.5	
4.4	8.3	Fc1ccc(N2CCN(CC[C@H]3CC[C@H](Nc4ncccn4)CC3)CC2)cc1 [Example 15, trans-(4-{2-[4-(4-Fluoro-phenyl)-piperazin-1-yl]-ethyl}-cyclohexyl)-pyrimidin-2-yl-amine]	0.7	
		C1=C(c2ccccc2)CCN(CC[C@H]2CC[C@H](Nc3ncccn3)CC2)C1 [Example 16, trans-{4-[2-(4-Phenyl-3,6-dihydro-2H-pyridin-1-yl)-ethyl]-cyclohexyl}-pyrimidin-2-yl-amine]		0.25
		c1cnc(N[C@H]2CC[C@H](CCN3CCN(c4nccs4)CC3)CC2)nc1 [Example 17, trans-Pyrimidin-2-yl-{4-[2-(4-thiazol-2-yl-piperazin-1-yl)-ethyl]-cyclohexyl}-amine]	0.3	
	25.3	c1cnc(N[C@H]2CC[C@H](CCN3CCN(c4cccnc4)CC3)CC2)nc1 [Example 20, trans-{4-[2-(4-Pyridin-3-yl-piperazin-1-yl)-ethyl]-cyclohexyl}-pyrimidin-2-yl-amine]		
1.2	1.4	c1ccc(N2CCN(CC[C@H]3CC[C@H](Nc4ccccn4)CC3)CC2)cc1 [Example 24, trans-{4-[2-(4-Phenyl-piperazin-1-yl)-ethyl]cyclohexyl}-pyridin-2-yl-amine]	0.2	
7.9	2.35	c1ccc(N2CCN(CC[C@H]3CC[C@H](Nc4nccs4)CC3)CC2)cc1 [Example 26, trans-{4-[2-(4-Phenyl-piperazin-1-yl)-ethyl]-cyclohexyl}-thiazol-2-yl-amine]		
5.1	0.93	c1ccc(N2CCN(CC[C@H]3CC[C@H](Nc4cnccn4)CC3)CC2)cc1 [Example 27, trans-{4-[2-(4-Phenyl-piperazin-1-yl)-ethyl]-cyclohexyl}-pyrazin-2-yl-amine]	0.18	

SMILES	Ki [1] [nM]	Ki [3] [nM]	ED50 ([2]; mice, IP, ED50) [mg/kg]	ED50 ([2]; ip) [mg/kg]
Cl.c1ccc(N2CCN(CC[C@H]3CC[C@@H](Nc4ncccn4)CC3)CC2)nc1 [Example 1, cis-{4-[2-(4-Pyridin-2-yl-piperazin-1-yl)-ethyl]-cyclohexyl}-pyrimidin-2-yl-amine hydrochloride]	8.8		1.2	
c1ccc(N2CCN(CC[C@H]3CC[C@H](Nc4ncccn4)CC3)CC2)cc1 [Example 2, trans-{4-[2-(4-Phenyl-piperazin-1-yl)-ethyl]cyclohexyl}-pyrimidin-2-yl-amine]	3.1	3.4	0.3	
